Reference: patent publication US7745495B2, “Pyridine ketones with herbicidal effect” (Syngenta Crop Protection, Inc., priority 2004, dated 2010)

How the values were obtained:
Format in all cases: in vivo
Setaria [1] = test: Pre-emergent herbicidal activity; conditions: Table B3, rating 10=total damage, 0=no action
Procedure: (§1) Monocotyledonous and dicotyledonous test plants are sown in standard soil in plastic pots. […] The test plants are then grown in a greenhouse under optimum conditions. After a test duration of 3 weeks, the test is evaluated in accordance with a scale of ten ratings (10=total damage, 0=no action). Ratings of from 10 to 7 (especially from 10 to 8) indicate good to very good herbicidal action.
(§2) In the following Table B3, the pre-emergent herbicidal activity of compound H-14 according to the invention is compared with 4 compounds according to the prior art. All compounds are structurally identical except for the nature of the alkylene linker attached to the pyridine ring.

Brachiaria = test: Pre-emergent herbicidal activity; conditions: Table B3, rating 10=total damage, 0=no action
Procedure: as §1, §2

Corn = test: Pre-emergent herbicidal activity on crop plant; conditions: for Pre-emergent Herbicidal Activity: Corn: Table B3, crop plant, rating 10=total damage, 0=no action
Procedure: as §1, §2

Soya = test: Pre-emergent herbicidal activity on crop plant; conditions: for Pre-emergent Herbicidal Activity: Soya: Table B3, crop plant, rating 10=total damage, 0=no action
Procedure: as §1, §2

Echinochloa = test: Pre-emergence herbicidal action; conditions: rating 10=total damage, 0=no action; for Pre-emergent Herbicidal Activity: Echinochloa: Table B3; for Pre-emergence herbicidal action: Echinochloa: 250 g/ha, after 3 weeks
Procedure: as §1

Abutilon [2] = test: Pre-emergence herbicidal action; conditions: rating 10=total damage, 0=no action; for Pre-emergent Herbicidal Activity: Abutilon: Table B3; for Pre-emergence herbicidal action: Abutilon: 250 g/ha, after 3 weeks
Procedure: as §1

Amaranthus = test: Pre-emergence herbicidal action; conditions: rating 10=total damage, 0=no action; for Pre-emergent Herbicidal Activity: Amaranthus: Table B3; for Pre-emergence herbicidal action: Amaranthus: 250 g/ha, after 3 weeks
Procedure: as §1

Stellaria [3] = test: Pre-emergence herbicidal action; conditions: 250 g/ha; after 3 weeks; rating 10=total damage, 0=no action
Procedure: (§3) Monocotyledonous and dicotyledonous test plants are sown in standard soil in plastic pots. Immediately after sowing, the test compounds, in the form of an aqueous suspension (prepared from a 25% wettable powder (Example F3, b) according to WO 97/34485) or in the form of an emulsion (prepared from a 25% emulsifiable concentrate (Example F1, c)), are applied by spraying a concentration corresponding to 125 g or 250 g of active ingredient/ha (500 liter of water/ha). The test plants are then grown in a greenhouse under optimum conditions. After a test duration of 3 weeks, the test is evaluated in accordance with a scale of ten ratings (10=total damage, 0=no action). Ratings of from 10 to 7 (especially from 10 to 8) indicate good to very good herbicidal action.

Chenopodium [4] = test: Pre-emergence herbicidal action; conditions: 250 g/ha; after 3 weeks; rating 10=total damage, 0=no action
Procedure: as §3

Setaria [5] = test: Post-emergence herbicidal action; conditions: 250 g/ha; 4- to 6-leaf stage; after about 18 days; rating 10=total damage, 0=no action
Procedure: (§4) In a greenhouse, monocotyledonous and dicotyledonous test plants are grown in standard soil in plastic pots and at the 4- to 6-leaf stage are sprayed with an aqueous suspension of the test compounds of formula I prepared from a 25% wettable powder (Example F3, b) according to WO 97/34485) or with an emulsion of the test compounds of formula I prepared from a 25% emulsifiable concentrate (Example F1, c) according to WO 97/34485), in a concentration corresponding to 125 g or 250 g of active ingredient/ha (500 liter of water/ha). The test plants are then grown on in a greenhouse under optimum conditions. After a test duration of about 18 days, the test is evaluated in accordance with a scale of ten ratings (10=total damage, 0=no action). Ratings of from 10 to 7 (especially from 10 to 8) indicate good to very good herbicidal action.

Ipomea = test: Post-emergence herbicidal action; conditions: 250 g/ha; 4- to 6-leaf stage; after about 18 days; rating 10=total damage, 0=no action
Procedure: as §4

Digitaria [6] = test: Post-emergence herbicidal action; conditions: 250 g/ha; 4- to 6-leaf stage; after about 18 days; rating 10=total damage, 0=no action
Procedure: as §4

Sinapis = test: Post-emergence herbicidal action; conditions: 250 g/ha; 4- to 6-leaf stage; after about 18 days; rating 10=total damage, 0=no action
Procedure: as §4

Abutilon [7] = test: Post-emergence herbicidal action; conditions: 250 g/ha; 4- to 6-leaf stage; after about 18 days; rating 10=total damage, 0=no action
Procedure: as §4

Panicum [8] = test: Post-emergence herbicidal action; conditions: 250 g/ha; 4- to 6-leaf stage; after about 18 days; rating 10=total damage, 0=no action
Procedure: as §4

Stellaria [9] = test: Post-emergence herbicidal action; conditions: 250 g/ha; 4- to 6-leaf stage; after about 18 days; rating 10=total damage, 0=no action
Procedure: as §4

Chenopodium [10] = test: Post-emergence herbicidal action; conditions: 250 g/ha; 4- to 6-leaf stage; after about 18 days; rating 10=total damage, 0=no action
Procedure: as §4

Digitaria [11] = test: Pre-emergence herbicidal action; conditions: 250 g/ha; after 3 weeks; rating 10=total damage, 0=no action
Procedure: as §1

Panicum [12] = test: Pre-emergence herbicidal action; conditions: 250 g/ha; after 3 weeks; rating 10=total damage, 0=no action
Procedure: as §1

[13] = pre-emergent, 30 and 15 g/ha, result in words on Table B3

Compound | Pre-emergent Herbicidal Activity: Setaria (Setaria [1]; 30 g/ha) | Pre-emergent Herbicidal Activity: Brachiaria (Brachiaria; 15 g/ha) | Pre-emergent Herbicidal Activity: Brachiaria (Brachiaria; 30 g/ha) | Pre-emergent Herbicidal Activity: Corn (Corn; 15 g/ha) | Pre-emergent Herbicidal Activity: Corn (Corn; 30 g/ha) | Pre-emergence herbicidal action: Stellaria (Stellaria [3]) | Pre-emergence herbicidal action: Chenopodium (Chenopodium [4]) | Post-emergence herbicidal action: Setaria (Setaria [5]) | Post-emergence herbicidal action: Ipomea (Ipomea) | Post-emergence herbicidal action: Digitaria (Digitaria [6]) | Post-emergence herbicidal action: Sinapis (Sinapis) | Post-emergence herbicidal action: Abutilon (Abutilon [7]) | Post-emergence herbicidal action: Panicum (Panicum [8]) | Post-emergence herbicidal action: Stellaria (Stellaria [9]) | Post-emergence herbicidal action: Chenopodium (Chenopodium [10]) | Pre-emergence herbicidal action: Digitaria (Digitaria [11]) | Pre-emergence herbicidal action: Echinochloa (Echinochloa) | Pre-emergence herbicidal action: Abutilon (Abutilon [2]) | Pre-emergence herbicidal action: Amaranthus (Amaranthus) | Pre-emergence herbicidal action: Panicum (Panicum [12]) | further results
COCCCCc1nc(C(F)(F)F)ccc1C(=O)C1C(=O)C2CCC(C2)C1=O (stereo not drawn) [Compound F] | 6 | 0 | 6 | 0 | 0 |  |  |  |  |  |  |  |  |  |  |  |  |  |  |  | phytotoxic effect on the crop plants (corn) (Corn; [13]): no phytotoxic effect; Pre-emergent Herbicidal Activity: Soya (Soya; 15 g/ha): 0; Pre-emergent Herbicidal Activity: Soya (Soya; 30 g/ha): 0; phytotoxic effect on the crop plants (soya) (Soya; [13]): no phytotoxic effect; Pre-emergent Herbicidal Activity: Echinochloa (Echinochloa; 30 g/ha): 7; Pre-emergent Herbicidal Activity: Abutilon (Abutilon [2]; 15 g/ha): 8; Pre-emergent Herbicidal Activity: Abutilon (Abutilon [2]; 30 g/ha): 8; Pre-emergent Herbicidal Activity: Amaranthus (Amaranthus; 15 g/ha): 7; Pre-emergent Herbicidal Activity: Amaranthus (Amaranthus; 30 g/ha): 7
COCCCc1nc(C(F)F)ccc1C(=O)C1C(=O)C2CCCC(C2)C1=O (stereo not drawn) [Compound H-21] |  |  |  |  |  | 10 | 10 | 8 | 8 | 9 | 9 | 8 | 9 | 8 | 9 | 10 | 9 | 7 | 7 | 10 | 
CCOCCCc1nc(C(F)(F)F)ccc1C(=O)C1C(=O)C2CCC(C2)C1=O (stereo not drawn) [Compound H-15] |  |  |  |  |  | 10 | 10 | 8 | 8 | 8 | 9 | 9 | 9 | 9 | 10 | 9 | 10 | 10 | 10 | 10 | 
COCCCc1nc(C(F)(F)F)ccc1C(=O)C1C(=O)C2CCC(C)(C2)C1=O (stereo not drawn) [Compound H-16] |  |  |  |  |  | 8 | 9 | 10 | 9 | 9 | 10 | 9 | 10 | 10 | 10 | 10 | 10 | 10 | 8 | 10 | 
COCCCc1nc(C(F)(F)F)ccc1C(=O)C1C(=O)C2CCCC(C2)C1=O (stereo not drawn) [Compound H-19] |  |  |  |  |  |  |  | 8 | 8 | 9 | 9 | 8 | 8 | 8 | 9 |  |  |  |  |  | 
COCCc1nc(C(F)(F)F)ccc1C(=O)C1C(=O)C2CCC(C2)C1=O (stereo not drawn) [A] | 7 | 6 | 7 | 0 | 0 |  |  |  |  |  |  |  |  |  |  |  |  |  |  |  | Pre-emergent Herbicidal Activity: Setaria (Setaria [1]; 15 g/ha): 6; Pre-emergent Herbicidal Activity: Soya (Soya; 15 g/ha): 2; Pre-emergent Herbicidal Activity: Soya (Soya; 30 g/ha): 5; Pre-emergent Herbicidal Activity: Echinochloa (Echinochloa; 15 g/ha): 4; Pre-emergent Herbicidal Activity: Echinochloa (Echinochloa; 30 g/ha): 9; Pre-emergent Herbicidal Activity: Abutilon (Abutilon [2]; 15 g/ha): 9; Pre-emergent Herbicidal Activity: Abutilon (Abutilon [2]; 30 g/ha): 9; Pre-emergent Herbicidal Activity: Amaranthus (Amaranthus; 15 g/ha): 7; Pre-emergent Herbicidal Activity: Amaranthus (Amaranthus; 30 g/ha): 7
COC/C=C\c1nc(C(F)(F)F)ccc1C(=O)C1C(=O)C2CCC(C2)C1=O (stereo not drawn) [C] | 2 | 0 | 0 | 0 | 0 |  |  |  |  |  |  |  |  |  |  |  |  |  |  |  | Pre-emergent Herbicidal Activity: Setaria (Setaria [1]; 15 g/ha): 2; Pre-emergent Herbicidal Activity: Soya (Soya; 15 g/ha): 0; Pre-emergent Herbicidal Activity: Soya (Soya; 30 g/ha): 0; Pre-emergent Herbicidal Activity: Echinochloa (Echinochloa; 15 g/ha): 3; Pre-emergent Herbicidal Activity: Echinochloa (Echinochloa; 30 g/ha): 3; Pre-emergent Herbicidal Activity: Abutilon (Abutilon [2]; 15 g/ha): 3; Pre-emergent Herbicidal Activity: Abutilon (Abutilon [2]; 30 g/ha): 4; Pre-emergent Herbicidal Activity: Amaranthus (Amaranthus; 15 g/ha): 3; Pre-emergent Herbicidal Activity: Amaranthus (Amaranthus; 30 g/ha): 5
COCc1nc(C(F)(F)F)ccc1C(=O)C1C(=O)C2CCC(C2)C1=O (stereo not drawn) [B] | 9 | 6 | 9 | 1 | 1 |  |  |  |  |  |  |  |  |  |  |  |  |  |  |  | Pre-emergent Herbicidal Activity: Setaria (Setaria [1]; 15 g/ha): 8; Pre-emergent Herbicidal Activity: Soya (Soya; 15 g/ha): 6; Pre-emergent Herbicidal Activity: Soya (Soya; 30 g/ha): 8; Pre-emergent Herbicidal Activity: Echinochloa (Echinochloa; 15 g/ha): 9; Pre-emergent Herbicidal Activity: Echinochloa (Echinochloa; 30 g/ha): 10; Pre-emergent Herbicidal Activity: Abutilon (Abutilon [2]; 15 g/ha): 8; Pre-emergent Herbicidal Activity: Abutilon (Abutilon [2]; 30 g/ha): 9; Pre-emergent Herbicidal Activity: Amaranthus (Amaranthus; 15 g/ha): 6; Pre-emergent Herbicidal Activity: Amaranthus (Amaranthus; 30 g/ha): 8
COCCCc1nc(C(F)F)ccc1C(=O)C1C(=O)C2CCC(C)(C2)C1=O (stereo not drawn) [Compound H-1] |  |  |  |  |  | 7 | 10 | 8 | 9 | 9 | 8 | 9 | 9 | 8 | 8 | 9 | 9 | 9 | 9 | 9 | 
CCC12CCC(C1)C(=O)C(C(=O)c1ccc(C(F)(F)F)nc1CCCOC)C2=O (stereo not drawn) [Compound H-17] |  |  |  |  |  |  |  | 8 | 7 | 7 | 9 | 9 | 8 | 9 | 8 |  |  |  |  |  | 
COCCCc1nc(C(F)F)ccc1C(=O)C1C(=O)C2CCC(CC2)C1=O (stereo not drawn) [Compound H-4] |  |  |  |  |  | 7 | 9 | 7 | 7 | 9 | 9 | 8 | 9 | 8 | 7 | 9 | 9 | 9 | 9 | 9 | 
